Marks after values point to notes of the source that are not given here.
How the values were obtained:
[1] = Diazepam solubility in excipients; assay type: physicochemical; settings: diazepam (API) in the excipient
Text: Diazepam was applied in the buccal area (cheek) to diffuse through the oral mucosa and enter directly into the bloodstream. Solubility of diazepam was also studied using various excipients.
The following excipients have also been studied to improve solubility.

[2] = Ex vivo permeation of epinephrine, Franz diffusion cell
Experimental: A franz diffusion cell is obtained and prepared.
If testing films, one can perform the following next steps: (1) weigh films, punch to match diffusion area (or smaller), reweigh, record pre- and post-punching weight; (2) wet a donor area with approximately 100 μL of phosphate buffer; (3) place film on a donor surface, top with 400 μL of phosphate buffer, and start timers.
The tissue is dermatomed to precise thickness. • 4. […] The media is selected to ensure sink conditions. • 5.

[3] = Excipient properties (HLB, water solubility); assay type: physicochemical; settings: of the excipient
[4] = FIG. 6A, 6B

OCc1ccccc1 [Benzyl Alcohol]
API Solubility mg/gm total mix [1]: 400 mg/gm total mix

CNC[C@H](O)c1ccc(O)c(O)c1 [Epinephrine Base]
permeation, base solubilized in situ vs Epinephrine Bitartrate ([2]; 4.4 mg/mL base vs 8.00 mg/mL bitartrate): no differences were found
Average Steady State Flux ([2]; conc 4.4 mg/mL, solubilized in situ): 0.512 ug/cm2 * min

CNC[C@H](O)c1ccc(O)c(O)c1 [Epinephrine Bitartrate]
permeation as a function of concentration [2]: increasing concentration resulted in increased permeation
permeation as a function of solution pH [2]: pH 5 was slightly more favorable as compared to pH 3
average flux ([2]; 30 min, 16 mg/mL): 0 μg/cm2 * min
average flux ([2]; 45 min, 16 mg/mL): 0.2604 μg/cm2 * min
average flux ([2]; 60 min, 16 mg/mL): 0.3125 μg/cm2 * min
average flux ([2]; 120 min, 16 mg/mL): 0.6727 μg/cm2 * min
average flux ([2]; 180 min, 16 mg/mL): 1.076 μg/cm2 * min
average flux ([2]; 240 min, 16 mg/mL): 1.029 μg/cm2 * min
average flux ([2]; 300 min, 16 mg/mL): 1.25 μg/cm2 * min
Average Steady State Flux ([2]; 360 min, 4 mg/mL): 0.167 ug/cm2 * min
Average Steady State Flux ([2]; 360 min, 8 mg/mL): 0.466 ug/cm2 * min
Average Steady State Flux ([2]; 360 min, 16 mg/mL): 1.317 ug/cm2 * min
average flux ([2]; 360 min, 16 mg/mL): 1.385 μg/cm2 * min
Average Steady State Flux ([2]; 360 min, 100 mg/mL): 2.942 ug/cm2 * min

CCCCCCCC/C=C\CCCCCCCC(=O)OCC(O)CO (stereo not shown) [Glycerol Monooleate]
API Solubility mg/gm total mix [1]: 71 mg/gm total mix
HLB [3]: 1

CCCCCCCC/C=C\CCCCCCCC(=O)O [Oleic Acid]
API Solubility mg/gm total mix [1]: <50 mg/gm total mix

CC(O)CO (stereo not shown) [Propylene Glycol]
API Solubility mg/gm total mix [1]: <30 mg/gm total mix

CNC[C@H](O)c1ccc(O)c(O)c1 [epinephrine]
time after which amount leveled off [4]: about 40 minutes

From patent US11273131B2, “Pharmaceutical compositions with enhanced permeation” (AQUESTIVE THERAPEUTICS, INC., priority 2016, dated 2022)
